Measurements: the supplement of paper PMC11061612

Experiments:
[1] = system: KYSE-140 (Esophageal Squamous Cell Carcinoma); assay: Bliss excess, mean over the matrix (fraction); higher = more synergy
Method in brief: (§1)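 Cell lines grown in DMEM/F12 or RPMI with 10% FBS were plated in 1536-well plates and held 24 hours at 37°C, 5% CO2 before 72 hours of exposure to two-drug dose matrices, with DMSO typically at 0.2%. CellTiter-Glo 2.0 luminescence gave viability, which was converted to inhibition. Vehicle wells were set to 0 and blank wells to 1. Combination Emax is the second-highest inhibition in the matrix, and Bliss excess is the observed combination effect minus the expected EA + EB − EA·EB, where EA and EB are the single-agent effects.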

[2] = system: huH-1 (Hepatocellular Carcinoma); assay: as above
Method in brief: as §1

[3] = system: SK-HEP-1 (Hepatocellular Carcinoma); assay: as above
Method in brief: as §1

769-P (Kidney Carcinoma) = assay: as above
Method in brief: as §1

[4] = system: SW620 (Colorectal Carcinoma); assay: as above
Method in brief: as §1

AU565 (Breast Carcinoma) = assay: combination Emax (second highest fraction inhibited in the dose matrix, 72 h); higher = more inhibition; extreme values may be limits of the assay
Method in brief: as §1

[5] = system: CAL-27 (Oral Cavity Carcinoma); assay: as above
Method in brief: as §1

[6] = system: NCI-H1651 (Lung Adenocarcinoma); assay: as above
Method in brief: as §1

NB13 (Neuroblastoma) = assay: as above
Method in brief: as §1

[7] = system: Jurkat (T-Lymphoblastic Leukemia); assay: as above
Method in brief: as §1

HCC70 (Breast Carcinoma) = assay: as above
Method in brief: as §1

[8] = system: 22RV1 (Prostate Carcinoma); assay: as above
Method in brief: as §1

[9] = system: NCI-H2228 (Lung Adenocarcinoma); assay: as above
Method in brief: as §1

[10] = system: A253 (Head and Neck Carcinoma); assay: as above
Method in brief: as §1

[11] = system: NCI-H2087 (Lung Adenocarcinoma); assay: as above
Method in brief: as §1

[12] = system: JHU-022 (Oral Cavity Carcinoma); assay: as above
Method in brief: as §1

[13] = system: GCT (Other Solid Carcinomas); assay: as above
Method in brief: as §1

WM1552C (Melanoma) = assay: as above
Method in brief: as §1

[14] = system: JIMT-1 (Breast Carcinoma); assay: as above
Method in brief: as §1

[15] = system: CESS (Acute Myeloid Leukemia); assay: as above
Method in brief: as §1
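Throughout, for Bliss excess, mean over the matrix: after 72 h of two-drug dosing.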

`COc1cccc(OCCCN)c1-c1cc(Nc2cnc(C#N)cn2)n[nH]1` [Prexasertib] + CCc1c2c(nc3ccc(O)cc13)-c1cc3c(c(=O)n1C2)COC(=O)[C@]3(O)CC [SN-38] (first compound max 1 µM, 7x7, partner max 0.3 µM) gave a Bliss excess [1] of -0.0076, a Bliss excess [2] of 0.022 and a Bliss excess [3] of -0.0339. For the same compound, the Bliss excess (769-P (Kidney Carcinoma)) was -0.0688, the Bliss excess [4] was 0.0603 and the “combination Emax” value (AU565 (Breast Carcinoma)) was 0.949. The “combination Emax” value [5] was 0.948, the “combination Emax” value [6] was 0.879 and the “combination Emax” value (NB13 (Neuroblastoma)) was 0.962. The “combination Emax” value [7] was 1, the “combination Emax” value (HCC70 (Breast Carcinoma)) was 0.944 and the “combination Emax” value [8] was 0.727. The “combination Emax” value [9] was 0.821, the “combination Emax” value [10] was 0.966 and the “combination Emax” value [11] was 0.918. For the same compound, the “combination Emax” value [12] was 0.756, the “combination Emax” value [13] was 0.842 and the “combination Emax” value (WM1552C (Melanoma)) was 0.833. The “combination Emax” value [14] was 0.87 and the “combination Emax” value [15] was 0.983.
`CCN(CCO)CCCOc1ccc2c(Nc3cc(CC(=O)Nc4cccc(F)c4)[nH]n3)ncnc2c1` [AZD2811] + C=CCn1c(=O)c2cnc(Nc3ccc(N4CCN(C)CC4)cc3)nc2n1-c1cccc(C(C)(C)O)n1 [AZD1775] (first compound max 1 µM, partner max 1 µM) gave a Bliss excess [1] of -0.0155, a Bliss excess [2] of -0.0176 and a Bliss excess [3] of 0.0336. The Bliss excess (769-P (Kidney Carcinoma)) was -0.0267, the Bliss excess [4] was -0.0367 and the “combination Emax” value (AU565 (Breast Carcinoma)) was 0.449. For the same compound, the “combination Emax” value [5] was 0.511, the “combination Emax” value [6] was 0.634 and the “combination Emax” value (NB13 (Neuroblastoma)) was 0.924. For the same compound, the “combination Emax” value [7] was 0.798, the “combination Emax” value (HCC70 (Breast Carcinoma)) was 0.589 and the “combination Emax” value [8] was 0.234. For the same compound, the “combination Emax” value [9] was 0.598, the “combination Emax” value [10] was 0.407 and the “combination Emax” value [11] was 0.291. The “combination Emax” value [12] was 0.388, the “combination Emax” value [13] was 0.292 and the “combination Emax” value (WM1552C (Melanoma)) was 0.424. The “combination Emax” value [14] was 0.488 and the “combination Emax” value [15] was 0.922.
In the case of `Cn1cnc2c(F)c(Nc3ccc(Br)cc3Cl)c(C(=O)NOCCO)cc21` [Selumetinib] + C[C@@H]1COCCN1C2=NC(=NC(=C2)C3(CC3)[S@](=N)(=O)C)C4=C5C=CNC5=NC=C4 [AZD6738] (first compound max 10 µM, 7x7, partner max 10 µM), the Bliss excess [1] is reported as -0.0888, the Bliss excess [2] is reported as -0.0551 and the Bliss excess [3] is reported as -0.034. For the same compound, the Bliss excess (769-P (Kidney Carcinoma)) was -0.0122, the Bliss excess [4] was 0.0587 and the “combination Emax” value (AU565 (Breast Carcinoma)) was 0.315. The “combination Emax” value [5] was 0.63, the “combination Emax” value [6] was 0.377 and the “combination Emax” value (NB13 (Neuroblastoma)) was 0.855. The “combination Emax” value [7] was 0.913, the “combination Emax” value (HCC70 (Breast Carcinoma)) was 0.778 and the “combination Emax” value [8] was 0.526. The “combination Emax” value [9] was 0.405, the “combination Emax” value [10] was 0.636 and the “combination Emax” value [11] was 0.661. For the same compound, the “combination Emax” value [12] was 0.567, the “combination Emax” value [13] was 0.373 and the “combination Emax” value (WM1552C (Melanoma)) was 0.59. The “combination Emax” value [14] was 0.491 and the “combination Emax” value [15] was 0.815.
With `Cn1cnc2c(F)c(Nc3ccc(Br)cc3Cl)c(C(=O)NOCCO)cc21` [Selumetinib] + CCN(CCO)CCCOc1ccc2c(Nc3cc(CC(=O)Nc4cccc(F)c4)[nH]n3)ncnc2c1 [AZD2811] (first compound max 10 µM, 7x7, partner max 1 µM) the Bliss excess [1] was -0.0554, the Bliss excess [2] was -0.0492 and the Bliss excess [3] was -0.0421. The Bliss excess (769-P (Kidney Carcinoma)) was -0.0062, the Bliss excess [4] was 0.0738 and the “combination Emax” value (AU565 (Breast Carcinoma)) was 0.2. The “combination Emax” value [5] was 0.611, the “combination Emax” value [6] was 0.209 and the “combination Emax” value (NB13 (Neuroblastoma)) was 0.367. The “combination Emax” value [7] was 0.203, the “combination Emax” value (HCC70 (Breast Carcinoma)) was 0.603 and the “combination Emax” value [8] was 0.383. For the same compound, the “combination Emax” value [9] was 0.296, the “combination Emax” value [10] was 0.348 and the “combination Emax” value [11] was 0.445. The “combination Emax” value [12] was 0.54, the “combination Emax” value [13] was 0.384 and the “combination Emax” value (WM1552C (Melanoma)) was 0.439. The “combination Emax” value [14] was 0.153 and the “combination Emax” value [15] was 0.423.
For `NC1(C(=O)N[C@@H](CCO)c2ccc(Cl)cc2)CCN(c2ncnc3[nH]ccc23)CC1` [Capivasertib] + C[C@@H]1COCCN1C2=NC(=NC(=C2)C3(CC3)[S@](=N)(=O)C)C4=C5C=CNC5=NC=C4 [AZD6738] (first compound max 10 µM, 7x7, partner max 10 µM), the Bliss excess [1] was -0.0846, the Bliss excess [2] was -0.0533 and the Bliss excess [3] was -0.0744. The Bliss excess (769-P (Kidney Carcinoma)) was -0.0448, the Bliss excess [4] was -0.0475 and the “combination Emax” value (AU565 (Breast Carcinoma)) was 0.684. For the same compound, the “combination Emax” value [5] was 0.58, the “combination Emax” value [6] was 0.581 and the “combination Emax” value (NB13 (Neuroblastoma)) was 0.896. The “combination Emax” value [7] was 0.961, the “combination Emax” value (HCC70 (Breast Carcinoma)) was 0.817 and the “combination Emax” value [8] was 0.76. For the same compound, the “combination Emax” value [9] was 0.575, the “combination Emax” value [10] was 0.852 and the “combination Emax” value [11] was 0.486. For the same compound, the “combination Emax” value [12] was 0.631, the “combination Emax” value [13] was 0.673 and the “combination Emax” value (WM1552C (Melanoma)) was 0.651. The “combination Emax” value [14] was 0.612 and the “combination Emax” value [15] was 0.91.
`CC1(C)CCC(CN2CCN(c3ccc(C(=O)NS(=O)(=O)c4ccc(NCC5CCOCC5)c([N+](=O)[O-])c4)c(Oc4cnc5[nH]ccc5c4)c3)CC2)=C(c2ccc(Cl)cc2)C1` [Venetoclax] + C[C@@H](Nc1cc(F)cc(F)c1)c1cc(C(=O)N(C)C)cc2c(=O)cc(N3CCOCC3)oc12 [AZD8186] (first compound max 1 µM, 7x7, partner max 3 µM) was tested, and the Bliss excess [1] was -0.0149, the Bliss excess [2] was -0.0265 and the Bliss excess [3] was -0.0299. The Bliss excess (769-P (Kidney Carcinoma)) was 0.049, the Bliss excess [4] was -0.0505 and the “combination Emax” value (AU565 (Breast Carcinoma)) was 0.225. The “combination Emax” value [5] was 0.182, the “combination Emax” value [6] was 0.128 and the “combination Emax” value (NB13 (Neuroblastoma)) was 0.253. The “combination Emax” value [7] was 0.271, the “combination Emax” value (HCC70 (Breast Carcinoma)) was 0.532 and the “combination Emax” value [8] was 0.322. The “combination Emax” value [9] was 0.293, the “combination Emax” value [10] was 0.103 and the “combination Emax” value [11] was 0.08. The “combination Emax” value [12] was 0.314, the “combination Emax” value [13] was 0.32 and the “combination Emax” value (WM1552C (Melanoma)) was 0.365. For the same compound, the “combination Emax” value [14] was 0.087 and the “combination Emax” value [15] was 0.587.
